Data as given in patent US20160052955A1 (SLOAN-KETTERING INSTITUTE FOR CANCER RESEARCH, priority 2013, published 2016).

Target: SETDB1Full-length (Homo sapiens, UniProt Q15047)
Test: Filter-paper methyltransferase assay, SETDB1
Assay type: biochemical

## Nc1ncnc2c1ncn2[C@@H]1O[C@H](C[C@@H](N)CC[C@H](N)C(=O)O)[C@@H](O)[C@H]1O [Sinefungin, sinefungin, reference compound]
  IC50: 8 µM
